For one assay, the system named is TNF-α. In words: Immunofluorescence of TNF-α in carotid artery, mouse arteriosclerosis model. It is filed as in vivo. As to conditions: 10 μg/g/day. On the procedure:
(§1) Carotid artery ligation was performed one week after injection of AAV-PCSK9 Virus (1×10^11 IFU/mL) and noranhydroicaritin (10 μg/g/day). After 3 weeks of ligation, it was confirmed whether the atherosclerosis model was completed, and gross plaque imaging and immunofluorescence were performed to confirm the arteriosclerosis inhibitory effect of noranhydroicaritin.
(§2) Furthermore, the arteriosclerosis inhibitory effect of noranhydroicaritin was confirmed using immunofluorescence. Specifically, a mouse carotid artery was obtained and fixed in 4% PFA for one day, and then prepared into a block. As the inflammatory response in blood vessels progresses, the arteriosclerosis worsens, and thus the marker […] of macrophages causing arteriosclerotic inflammatory response and TNF-α, IL-1B, and MCP-1, which are pro-inflammatory cytokines secreted when the inflammatory response occurs, were stained. Staining was performed using the antibody for each of CAP1(1:200), PCSK9(1:100), F4/80(1:100), TNF-α(1:100), […], and MCP-1(1:100), then imaging was performed using a confocal microscope, and […] was evaluated.

The test system of the next assay is F/480. In words: Immunofluorescence of macrophage marker F/480 in carotid artery, mouse arteriosclerosis model. It counts as in vivo. As to conditions: 10 μg/g/day. On the procedure:
as §1, §2

Another assay concerns SREBP 2 promoter. Description: SREBP 2 promoter-reporter luciferase assay in HEK293T cells. The conditions noted are these: pGL4.14-SREBP-transfected HEK293T cells, 18 hours, compared to control. It counts as cell-based, human. On the procedure:
In order to confirm the SREBP gene expression inhibitory effect of noranhydroicaritin, HEK293T cells were treated with noranhydroicaritin and kaempferol, and it was confirmed whether the expression of SREBP was inhibited through a luciferase assay.
i) A primer was prepared to contain KpnI and XhoI restriction enzyme sites in the SREBP 1 and 2 promoter gene region, and then PCR (polymerase chain reaction) and electrophoresis on an agarose gel were performed to isolate SREBP promoter region DNA. A pGL4.14-[luc2/Hygro] vector containing a firefly luciferase as a reporter gene was treated with the same restriction enzymes (KpnI and XhoI), and then isolated via agarose gel electrophoresis and gel extraction. The purely isolated SREBP promoter gene region and pGL4.14-[luc2/Hygro] vector were reacted for 1 hour using In-fusion DNA ligase (Takara), and then transformed into E. coli to prepare a promoter-reporter construct in which the SREBP promoter was inserted, and this was named pGL4.14-SREBP.
ii) In order to measure the transcriptional activity of the SREBP promoter gene, HEK293T cells were transfected with pGL4.14-SREBP, and then the luciferase activity of the cell extract was measured. […] Thereafter, the luciferase activity was measured by the method of Example 6. […]

In another assay the test system is PCSK9 mRNA. Description: PCSK9 mRNA by RealTime-PCR in HepG2 cells. It is filed as cell-based, human. As to conditions: 24 hours. From the text:
Proprotein convertase subtilisin/kexin type 9 (PCSK9) is an enzyme involved in lipid metabolism and is attached to low-density lipoprotein receptor (LDLR) bound to low-density lipoprotein (LDL) in the liver or other cell membranes to degrade LDLR so that LDLR cannot be regenerated into the cell membrane and cannot absorb extracellular LDL. Therefore, inhibition of PCSK9 production increases LDLR, decreases extracellular LDL, and lowers cholesterol levels, and thus lipid metabolism-related diseases may be alleviated. Therefore, in order to confirm the PCSK9 production inhibitory effect of noranhydroicaritin, HepG2 cells were treated with noranhydroicaritin at various concentrations, and then the relative quantity of PCSK9 mRAN was confirmed through RealTime-PCR.
Specifically, HepG2 cells were suspended at a concentration of 2.5×10^5 cells/mL, and 1 mL thereof was inoculated into each well of a […], and then maintained for one day. The HepG2 cells in the well plate were treated with kaempferol and noranhydroicaritin at concentrations of 2.5 μM, 5 μM, 10 μM, and 20 μM, and incubated for 24 hours, and then RNA was recovered, quantified, and stored at −70° C. Thereafter, cDNA was synthesized from the RNA and the quantity of PCSK9 mRNA was confirmed through RealTime-PCR analysis. The group treated only with DMSO was used as a negative control. […]

The next assay concerns LDLR. In words: Immunoblot of LDLR in HepG2 cells. It is filed as cell-based, human. The conditions noted are these: HepG2 cells, 5, 10, 20 μM. On the procedure:
In order to confirm the effect of noranhydroicaritin to inhibit PCSK9 expression and increase LDLR expression, immunoblotting targeting PCSK9 and LDLR was performed and the expression levels were compared. β-Actin was used as a control.
In a 100 mm Petri dish, 1×10^6 HepG2 cells were aliquoted and treated with noranhydroicaritin at various concentrations (5 μM, 10 μM, and 20 μM), and then the cells were removed from the cell-culture dish and homogenized using a protein extraction solution (NP40, ELPIS BIOTECH, Korea) containing a protease inhibitor cocktail (Roche).
In order to prepare the total protein, the cells were extracted in RIPA lysis buffer (50 mM Tris-HCl (pH 7.4), 150 mM NaCl, 5 mM EDTA, 5 mM EGTA, 5 mM sodium fluoride, 2 mM sodium orthovanadate, 1% NP-40, 0.1% sodium dodecyl sulfate [SDS], 1 mM phenylmethylsulfonyl fluoride [PMSF], and protein inhibitor cocktail [Roche Diagnostics, Heidelberg, Germany]). The protein concentration in the lysate was measured using the Bio-Rad dye-binding micro assay. For immunoblotting, 30 μg of cell lysate was isolated via SDS-polyacrylamide gel electrophoresis (PAGE). The proteins were transferred onto the Hybond-ECL nitrocellulose membrane (Amersham Biosciences, Buckinghamshire, UK). […] HRP-conjugated secondary antibodies were detected using an ECL detection reagent.
On the technique in general: A western blot detects proteins with antibodies after separation by electrophoresis.

As to `CC(C)=CCc1c(O)cc(O)c2c(=O)c(O)c(-c3ccc(O)cc3)oc12` [Noranhydroicaritin, noranhydroicaritin], the “expression of TNF-α (immunofluorescence)” value with TNF-α is “decreased”. Besides, the “expression of F/480, a marker of macrophages (immunofluorescence)” value with F/480 is recorded as “also decreased”. For the same compound, the “SREBP 2 luciferase activity” value with SREBP 2 promoter was “significantly decreased”. Also, the “PCSK9 production inhibitory effect (quantity of PCSK9 mRNA)” value in the assay with PCSK9 mRNA (2.5 μM and 5 μM) was “remarkably superior to that of the control”; in the assay with PCSK9 mRNA (same concentration as control) it was “superior to that of atorvastatin or rosuvastatin”. In addition, the “LDLR expression (immunoblot)” value in the assay on LDLR is reported as “increased in a concentration-dependent manner”.

The values above are taken from patent US20220151979A1, “COMPOSITION FOR PREVENTION OR TREATMENT OF CARDIOVASCULAR AND METABOLIC DISEASE COMPRISING NORANHYDROICARITIN” (SEOUL NATIONAL UNIVERSITY HOSPITAL, priority 2019, published 2022).
